From patent publication US20100029615A1, “BENZIMIDAZOLE DERIVATIVES” (priority 2006, published 2010)
Where a name gives a salt, the structure may show the parent alone.

Target: T1, SMO (Mus musculus, UniProt P56726)
T1 construct: endogenous in cells; host or cells: C3H10T1/2 (ATCC #CCL-226)
Experiment: Smoothened (SMO)/Sonic Hedgehog (SHh) Transient Transcriptional Activation Assay (Gli-luciferase reporter in C3H10T1/2 cells)
Assay type: cell-based, murine
Conditions: 2 uM test compound, SHh 250 ng/ml, 20 hrs
Method: As noted above, the compounds of the invention are useful as inhibitors of SMO. Methods for determining the in vitro activity of these compounds are described below: Smoothened (SMO)/Sonic Hedgehog (SHh) Transient Transcriptional Activation Assay
On Day 1,2×10^6 C3H10T1/2 cells (ATCC #CCL-226) were split and seeded in 12 mls of growth medium Basal Medium Eagle (BME, Invitrogen #21010-046) supplemented with 2 mM L-glutamine (Invitrogen #25030-081), 0.1 units/ml penicillin and 0.1 ug/ml streptomycin (Invitrogen #15140-122), and 10% Fetal Bovine Serum (FBS, Invitrogen #16140-071) in a T-75 flask (Costar #3376). They were allowed to attach for 4 hours at 37° C., 5% CO2. The cells were then transfected using Fugene 6 (Roch #11 814 443 001) in the following reaction: 48 ul Fugene 6 and 745 ul Opti-MEM (Invitrogen #31985-070) were mixed and allowed to sit at room temperature for 5 minutes. 8 ug of pGL4.14/mGli(CS) DNA (10× murine Gli response elements and minimal CS promoter) and 0.5 ug of pEGFP DNA (Clontech) were added, gently mixed and incubated at room temperature for 20 minutes. This entire transfection mix was then added to the T-75 flask containing the cells. The cells were incubated at 37 °C, 5% C02 for 18-24 hrs.
On Day 2, the transfected cells were trypsinized and seeded into white 96 well plates (Costar #3917) in 100ul/well of growth medium at a concentration of 20,000 cells/well. The cells were allowed to recover for 4 hrs before adding serum starvation medium Dulbecco's Modified Eagle Medium (DMEM, Invitrogen #21063-029) supplemented with 2 mM L-glutamine, 0.1 units/ml penicillin and 0.1 ug/ml streptomycin, and 0.5% Calf Serum (CS, Invitrogen #26170-043). The growth media was aspirated off, and the cells were rinsed with 100 ul of starvation media. 95 ul of starvation media was then added to each well. The cells were incubated for 20 hrs at 37 °C, 5% C02.
On Day 3, cells were dosed with test compounds at a final concentration ranging from 2 uM to 2 nM. Immediately after dosing cells with compounds, recombinant human sonic hedgehog (SHh, R&D Systems #1845-SH) was add to a final concentration of 250 ng/ml. A 25 ug vial of SHh was reconstituted with 250 ul PBS/0.1% BSA to give a 100 ng/ul working stock. This working stock was then diluted 1:20 in starvation media. The transfected cells were incubated with compounds and SHh for 20 hrs at 37 °C, 5% C02.
Luciferase assays were conducted on Day 4 using Dual-Glo Luciferase assay system (Promega #E2940) according to Promega's protocol. Briefly, Dual-Glo luciferase reagent was made up and 100 uls were added to each well of the 96 well plate containing media. Plates were shaken at room temperature for 10 minutes, and then read on TopCount (Perkin-Elmer). The luminescence was recorded.

T1 sequence (P56726 33-793): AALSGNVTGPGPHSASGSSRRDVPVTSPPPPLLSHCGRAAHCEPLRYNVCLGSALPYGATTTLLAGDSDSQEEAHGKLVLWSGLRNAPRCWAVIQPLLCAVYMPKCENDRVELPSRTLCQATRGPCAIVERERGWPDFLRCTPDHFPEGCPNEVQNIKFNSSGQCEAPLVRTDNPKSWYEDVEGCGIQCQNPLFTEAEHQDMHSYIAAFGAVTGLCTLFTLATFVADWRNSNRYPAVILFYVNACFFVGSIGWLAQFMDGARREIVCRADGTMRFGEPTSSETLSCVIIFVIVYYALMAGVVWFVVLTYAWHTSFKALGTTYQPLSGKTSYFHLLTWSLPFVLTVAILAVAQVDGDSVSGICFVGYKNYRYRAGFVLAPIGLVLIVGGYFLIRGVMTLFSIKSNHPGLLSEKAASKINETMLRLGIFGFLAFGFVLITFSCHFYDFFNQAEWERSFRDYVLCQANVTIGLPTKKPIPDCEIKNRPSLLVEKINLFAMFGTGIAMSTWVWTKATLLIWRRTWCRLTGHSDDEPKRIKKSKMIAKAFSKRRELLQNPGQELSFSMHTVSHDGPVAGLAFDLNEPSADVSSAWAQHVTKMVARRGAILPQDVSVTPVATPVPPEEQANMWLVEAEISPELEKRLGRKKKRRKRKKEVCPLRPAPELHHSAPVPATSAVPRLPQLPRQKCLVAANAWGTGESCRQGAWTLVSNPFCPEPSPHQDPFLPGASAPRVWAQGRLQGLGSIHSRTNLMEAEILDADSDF

| SMILES | SMO % inhibition at 2 uM [%] |
| --- | --- |
| COc1cc(OC)cc(C(=O)NC2CCCC(c3nc4cc(C(=O)N(C)C)ccc4[nH]3)C2)c1 (single isomer, unassigned) [Example 8, 2-(3-(3,5-dimethoxybenzamido)cyclohexyl)-N,N-dimethyl-1H-benzo[d]imidazole-5-carboxamides (cis- and trans-isomers)] | 68 |

Same assay, conditions: 2 μM test compound, SHh 250 ng/ml, 20 hrs

| SMO CELL % INHIBITION @ 2 μM [%] | SMILES |
| --- | --- |
| 99.22 | Cl.O=C(NC12CCCC(c3nc4cc(C(F)(F)F)ccc4[nH]3)(C1)C2)c1ccc2c(c1)OCCO2 [Example 258, N-{5-[5-(trifluoromethyl)-1H-benzimidazol-2-yl]bicyclo[3.1.1]hept-1-yl}-2,3-dihydro-1,4-benzodioxine-6-carboxamide HCL] |

Same assay, conditions: 2 μM test compound, SHh 250 ng/ml, 20 hrs, 2 µM

| SMO CELL % INHIBITION @ 2 μM [%] | SMILES |
| --- | --- |
| 101 | CN1CCCc2cc(C(=O)N[C@@H]3CCC[C@H](c4nc5ccccc5[nH]4)C3)ccc21 [Example 201, N-[(1R,3S)-3-(1H-benzimidazol-2-yl)cyclohexyl]-1-methyl-1,2,3,4-tetrahydroquino-line-6-carboxamide triflouroacetate] |

Same assay, conditions: C3H 10T1/2, 2 μM test compound, SHh 250 ng/ml, 20 hrs, read-out: SMO CELL % INHIBITION @ 2 μM

| inhibition at 2 µM [%] | SMILES |
| --- | --- |
| 75 | COc1cc(C(=O)NC2CCCC(c3nc4ccccc4[nH]3)C2)nc(OC)n1 (stereo not shown) [Example 119, N-[3-(1H-benzimidazol-2-yl)cyclohexyl]-2,6-dimethoxypyr-imidine-4-carboxamide triflouroacetate] |
| 70 | O=C(NCCCCl)N[C@@H]1CCC[C@H](c2nc3ccccc3[nH]2)C1 [Example 225, 1-((1R,3S)-3-(1H-benzo[d]imidaz-ol-2-yl)cyclohexyl)-3-(3-chloropropyl)-urea] |
| 103 | O=C(N[C@@H]1CCC[C@H](c2nc3ccccc3[nH]2)C1)c1ccc2c(c1)CCCO2 [Example 265, N-[(1R,3S)-3-(1H-benzimidazol-2-yl)cyclohexyl] chromane-6-carboxamide] |
| 109 | O=C(NC1CCCC(c2nc3ccccc3[nH]2)C1)c1cc(C2CC2)n[nH]1 (stereo not shown) [Example 114] |
| 114 | O=C(Nc1ccc(Cl)c(C(F)(F)F)c1)N[C@@H]1CCC[C@H](c2nc3ccccc3[nH]2)C1 [Example 238, 1-[(1R,3S)-3-(1H-benzimidazol-2-yl)cyclohexyl]-3-[4-chloro-3-(trifluoromethyl)phenyl]urea] |
| 102 | O=C(N[C@@H]1CCC[C@H](c2nc3ccccc3[nH]2)C1)c1ccc2c(c1)CCNC2 [Example 309, N-[(1R,3S)-3-(1H-benzimidazol-2-yl)cyclohexyl]-1,2,3,4-tetrahydroiso-quinoline-6-carboxamide HCl] |
| 111 | O=C(Nc1cc(F)cc2c1OCOC2)N[C@@H]1CCC[C@H](c2nc3ccccc3[nH]2)C1 [Example 230, 1-[(1R,3S)-3-(1H-benzimidazol-2-yl)cyclohexyl]-3-(6-fluoro-4H-1,3-benzodioxol-8-yl)urea] |
| 67 | O=C(CCC1CCCC1)NC1CCCC(c2nc3ccccc3[nH]2)C1 (stereo not shown) [Example 54, N-[3-(1H-benzimidazol-2-yl)cyclohexyl]-3-cyclopentylpro-panamide HCl] |
| 107 | Cc1ccc2[nH]c(C(=O)N[C@@H]3CCC[C@H](c4nc5ccccc5[nH]4)C3)c(C)c2c1 [Example 191, N-[(1R,3S)-3-(1H-benzimidazol-2-yl)cyclohexyl]-3,5-dimethyl-1H-indole-2-carboxamide triflouroacetate] |
| 86 | CCCN1CCNC(=O)C1CC(=O)NC1CCCC(c2nc3ccccc3[nH]2)C1 (stereo not shown) [Example 110, N-[3-(1H-benzimidazol-2-yl)cyclohexyl]-2-(3-oxo-1-propylpiperazin-2-yl)acetamide triflouroacetate] |
| 116 | O=C(NC1CCCC(c2nc3ccccc3[nH]2)C1)c1c[nH]c(=O)[nH]c1=O (stereo not shown) [Example 108, N-[3-(1H-benzimidazol-2-yl)cyclohexyl]-2,4-dioxo-1,2,3,4-tetrahydropyr-imidine-5-carboxamide triflouroacetate] |

Second part, the molecule before the results:

| SMILES | inhibition at 2 µM [%] |
| --- | --- |
| O=C(NC1CCCC(c2nc3ccc(F)c(F)c3[nH]2)C1)c1ccc2c(c1)OCCO2 (stereo not shown) [Example 81, N-[3-(6,7-difluoro-1H-benzimidazol-2-yl)cyclohexyl]-2,3-dihydro-1,4-benzodioxine-6-carboxamide HCl] | 103 |
| Cc1cc(C)n2nc(C(=O)N[C@@H]3CCC[C@H](c4nc5ccccc5[nH]4)C3)cc2n1 [Example 194, N-[(1R,3S)-3-(1H-benzimidazol-2-yl)cyclohexyl]-5,7-dimethylpyrazolo-[1,5-a]pyrimidine-2-carboxamide triflouroacetate] | 47 |
| O=C(N[C@@H]1CCC[C@H](c2nc3ccccc3[nH]2)C1)[C@@H]1COc2ccccc2O1 [Example 185, (2S)-N-[(1R,3S)-3-(1H-benzimidazol-2-yl)cyclohexyl]-2,3-dihydro-1,4-benzodioxine-2-carboxamide triflouroacetate] | 81 |
| O=C1CCc2cc(C(=O)N[C@@H]3CCC[C@H](c4nc5cc(C(F)(F)F)ccc5[nH]4)C3)ccc2N1 [Example 285, 2-oxo-N-{(1R,3S)-3-[5-(trifluoromethyl)-1H-benzimidazol-2-yl]cyclohexyl}-1,2,3,4-tetrahydroquino-line-6-carboxamide HCl] | 111 |
| Cn1c([C@H]2CCC[C@@H](NC(=O)c3ccc4c(c3)CCNC4)C2)nc2ccccc21 [Example 311, N-[(1R,3S)-3-(1-methyl-1H-benzimidazol-2-yl)cyclohexyl]-1,2,3,4-tetrahydroiso-quinoline-6-carboxamide HCl] | 100 |
| O=C(N[C@@H]1CCC[C@H](c2nc3cc(Br)ccc3[nH]2)C1)c1ccc2c(c1)OCCO2 [Example 149, N-[(1R,3S)-3-(5-bromo-1H-benzimidazol-2-yl)cyclohexyl]-2,3-dihydro-1,4-benzodioxine-6-carboxamide HCl] | 103 |
| O=C(CN1C(=O)COc2cccnc21)NC1CCCC(c2nc3ccccc3[nH]2)C1 (stereo not shown) [Example 105, N-[3-(1H-benzimidazol-2-yl)cyclohexyl]-2-(3-oxo-2,3-dihydro-4H-pyrido[3,2-b][1,4]oxazin-4-yl)acetamide triflouroacetate] | 103 |
| O=C(NC12CCCC(c3nc4cc(C(F)(F)F)ccc4[nH]3)(C1)C2)c1c(F)c(F)c(F)c(F)c1F [Example 288, 2,3,4,5,6-pentafluoro-N-{5-[5-(trifluoromethyl)-1H-benzimidazol-2-yl]bicyclo[3.1.1]hept-1-yl}benzamide] | 93.3 |
| CN1C(=O)COc2ccc(C(=O)N[C@@H]3CCC[C@H](c4nc5cc(Cl)ccc5[nH]4)C3)cc21 [Example 301, N-[(1R,3S)-3-(5-chloro-1H-benzimidazol-2-yl)cyclohexyl]-4-methyl-3-oxo-3,4-dihydro-2H-1,4-benzoxazine-6-carboxamide (+)-tartrate] | 108 |
| Cc1nn(C)c2sc(C(=O)N[C@@H]3CCC[C@H](c4nc5cc(C(F)(F)F)ccc5[nH]4)C3)cc12 [Example 284, 1,3-dimethyl-N-{(1R,3S)-3-[5-(trifluoromethyl)-1H-benzimidazol-2-yl]cyclohexyl}-1H-thieno[2,3-c]pyrazole-5-carboxamide HCl] | 94.9 |
| O=C(NC1CCCC(c2nc3ccccc3[nH]2)C1)c1ccc(CN2CCOCC2)o1 (stereo not shown) [Example 134, N-[3-(1H-benzimidazol-2-yl)cyclohexyl]-5-(morpholin-4-ylmethyl)-2-furamide triflouroacetate] | 101 |
